Data from ChEMBL document CHEMBL1932957, “Synthesis of 2H-benzo[b][1,4]oxazin-3(4H)-one derivatives as platelet aggregation inhibitors” (Bioorg Med Chem Lett, 2012).

Test: Antiplatelet activity in rabbit platelet rich plasma assessed as inhibition of ADP-induced platelet aggregation treated for 5 mins before ADP challenge measured for 6 mins by microplate reader
Type: functional, cell-free
Conditions: Oryctolagus cuniculus

| SMILES | IC50 [µM] |
| --- | --- |
| CCCCN1C(=O)COc2cc(CNc3ccccc3)ccc21 | 15.2 |
| CCCN1C(=O)COc2cc(CNc3ccc(C)cc3)ccc21 | 14.2 |
| Clc1ccccc1CN1CCc2sccc2C1 [TICLOPIDINE] | 3.18 |
| CCCN1C(=O)COc2cc(CNc3ccccc3C)ccc21 | 18.8 |
| CCCN1C(=O)COc2cc(CNc3ccccc3)ccc21 | 10.1 |

Continued by falling IC50, values first:

| IC50 [µM] | SMILES |
| --- | --- |
| 18.8 | CCCCN1C(=O)COc2cc(CNc3ccccc3C)ccc21 |
| 13.9 | CCCN1C(=O)COc2cc(CNc3cccc(C)c3)ccc21 |
| 12.7 | CCCCN1C(=O)COc2cc(CNc3cccc(C)c3)ccc21 |
| 6.07 | CC(=O)Oc1ccccc1C(=O)O [ASPIRIN] |
